These are literature values, as cited in US8754219B2, “Compounds that modulate intracellular calcium” (Calcimedica, Inc., priority 2010, dated 2014).

In data set [1] the target is STIM1 and Orai1 in HEK293 cells (Homo sapiens, UniProt Q96D31). Particulars: Orai1 expressed along with STIM1.
The test system of data set [2] is Jurkat cells.
The subject of data set [3] is Jurkat cells. This is another data set of the same source.
Data set [4] relates to colon cancer cells.
Data set [5] has as its system colon cancer cells. This is another data set of the same source.

Sequence of STIM1 and Orai1 in HEK293 cells (Q96D31 whole entry): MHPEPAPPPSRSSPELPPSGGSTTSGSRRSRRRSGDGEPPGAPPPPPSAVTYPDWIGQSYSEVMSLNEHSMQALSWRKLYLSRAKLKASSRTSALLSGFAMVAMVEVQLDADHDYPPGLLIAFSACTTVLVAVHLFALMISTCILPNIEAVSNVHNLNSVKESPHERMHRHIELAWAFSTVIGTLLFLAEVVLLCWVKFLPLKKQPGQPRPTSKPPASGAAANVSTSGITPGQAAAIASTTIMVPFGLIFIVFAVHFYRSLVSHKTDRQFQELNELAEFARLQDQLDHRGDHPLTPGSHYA

As for `NCCOB(c1ccccc1)c1ccccc1` [2-aminoethoxydiphenylborate], the “block of store dependent Ca2+ entry” value in data set [1] was “completely blocked”.

Consider `Cc1nnsc1C(=O)Nc1ccc(-n2nc(C(F)(F)F)cc2C(F)(F)F)cc1` [BTP-2], for which the “inhibition of SOCE” value in data set [2] and in data set [4] was “inhibits” each time. In addition, the inhibition of proliferation result in data set [3] and in data set [5] was “inhibits” each time.
